# Values quoted from earlier work as cited in patent US12365644B2, “Co-crystal of ketoprofen, lysine and gabapentin, pharmaceutical compositions and their medical use” (DOMPÉ FARMACEUTICI S.P.A., priority 2020, dated 2025).
# Assays:
# [1] = most common side effects
smiles,measurement,setting,value
NCC1(CC(=O)O)CCCCC1 [Gabapentin],time to utmost level in plasma,after oral administration,3 to 4 h
same,attachment to plasma proteins,in vivo,does not attach to plasma proteins
same,excretion half-life,renal excretion,roughly 6 hours
same,side effect: ataxia,[1],13%
same,side effect: dizziness,[1],18%
same,side effect: fatigue,[1],11%
same,side effect: somnolence,[1],20%
